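96-well plates; 48 h exposure; 5 concentrations. Endpoints by linear interpolation between flanking doses. Not reached: highest tested concentration assigned. Here, GI50 denotes the concentration required for 50% inhibition of growth. TGI marks complete inhibition of growth.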
What was measured:
Experiment in all cases: growth of human tumour cells (NCI), 48 h
[1] = tested on: TK-10 renal
[2] = tested on: ACHN renal
[3] = tested on: RXF 393 renal
[4] = tested on: UO-31 renal
[5] = tested on: SK-MEL-5 melanoma
[6] = tested on: UACC-257 melanoma
[7] = tested on: HS 578T breast
[8] = tested on: NCI-H226 lung
[9] = tested on: HOP-62 NSCLC
[10] = tested on: SK-OV-3 ovarian
[11] = tested on: SF-539 CNS
[12] = tested on: MALME-3M melanoma
[13] = tested on: CCRF-CEM leukemia
[14] = tested on: EKVX NSCLC
[15] = tested on: A549 NSCLC
[16] = tested on: HCT-15 colon
[17] = tested on: MDA-MB-435
[18] = tested on: SW-620 colon
[19] = tested on: OVCAR-3 ovarian
[20] = tested on: M14 melanoma
[21] = tested on: HL-60(TB) leukemia
[22] = tested on: SK-MEL-28 melanoma
[23] = tested on: SF-295 CNS
[24] = tested on: HT29 colon
[25] = tested on: HCT-116 colon
[26] = tested on: KM12 colon
[27] = tested on: CAKI-1 renal
[28] = tested on: MDA-MB-231 breast
[29] = tested on: DU-145 prostate
[30] = tested on: MOLT-4 leukemia
[31] = tested on: SNB-75 CNS
[32] = tested on: BT-549 breast
[33] = tested on: OVCAR-8 ovarian
[34] = tested on: SN12C renal
[35] = tested on: U251 CNS
[36] = tested on: HOP-92 NSCLC
[37] = tested on: UACC-62 melanoma
[38] = tested on: A498 renal
[39] = tested on: 786-0 renal
[40] = tested on: K-562 leukemia
[41] = tested on: OVCAR-4 ovarian
[42] = tested on: SK-MEL-2 melanoma
[43] = tested on: IGROV1 ovarian
[44] = tested on: NCI-H460 lung
[45] = tested on: COLO 205 colon
[46] = tested on: OVCAR-5 ovarian

SMILES: OCCCCCNCc1cc2cc3c(cc2c2cc(OCc4ccccc4)ccc12)OCO3
- GI50 [1]: 1550 nM
- TGI [1]: 2.95 µM
- GI50 [2]: 1580 nM
- TGI [2]: 2930 nM
- GI50 [3]: 1.04 µM
- TGI [3]: 2200 nM
- GI50 [4]: 1660 nM
- TGI [4]: 3.27 µM
- GI50 [5]: 1480 nM
- TGI [5]: 2800 nM
- GI50 [6]: 1630 nM
- TGI [6]: 3.15 µM
- GI50 [7]: 1790 nM
- TGI [7]: 3.56 µM
- GI50 [8]: 1850 nM
- TGI [8]: 3.41 µM
- GI50 [9]: 1720 nM
- TGI [9]: 3.23 µM
- GI50 [10]: 3.02 µM
- TGI [10]: 7.94 µM
- GI50 [11]: 1640 nM
- TGI [11]: 3000 nM
- GI50 [12]: 1660 nM
- TGI [12]: 3.1 µM
- GI50 [13]: 2520 nM
- TGI [13]: 6.11 µM
- GI50 [14]: 1750 nM
- TGI [14]: 3.28 µM
- GI50 [15]: 1550 nM
- TGI [15]: 2.89 µM
- GI50 [16]: 1590 nM
- TGI [16]: 3.05 µM
- GI50 [17]: 1660 nM
- TGI [17]: 3.02 µM
- GI50 [18]: 1390 nM
- TGI [18]: 2690 nM
- GI50 [19]: 1680 nM
- TGI [19]: 3.14 µM
- GI50 [20]: 1940 nM
- TGI [20]: 3.45 µM
- GI50 [21]: 1520 nM
- TGI [21]: 3.65 µM
- GI50 [22]: 1820 nM
- TGI [22]: 3.23 µM
- GI50 [23]: 1590 nM
- TGI [23]: 3 µM
- GI50 [24]: 1500 nM
- TGI [24]: 3 µM
- GI50 [25]: 1460 nM
- TGI [25]: 2810 nM
- GI50 [26]: 1620 nM
- TGI [26]: 2970 nM
- GI50 [27]: 1770 nM
- TGI [27]: 3.74 µM
- GI50 [28]: 1300 nM
- TGI [28]: 2560 nM
- GI50 [29]: 1540 nM
- TGI [29]: 2.88 µM
- GI50 [30]: 1410 nM
- TGI [30]: 4.55 µM
- GI50 [31]: 1720 nM
- TGI [31]: 3.09 µM
- GI50 [32]: 1620 nM
- TGI [32]: 2980 nM
- GI50 [33]: 1480 nM
- TGI [33]: 2800 nM
- GI50 [34]: 3.4 µM
- TGI [34]: 13.4 µM
- GI50 [35]: 1650 nM
- TGI [35]: 3.01 µM
- GI50 [36]: 1230 nM
- TGI [36]: 2840 nM
- GI50 [37]: 1710 nM
- TGI [37]: 3.08 µM
- GI50 [38]: 3570 nM
- TGI [38]: 14.2 µM
- GI50 [39]: 1610 nM
- TGI [39]: 2960 nM
- GI50 [40]: 1680 nM
- TGI [40]: 4.11 µM
- GI50 [41]: 1870 nM
- TGI [41]: 3.59 µM
- GI50 [42]: 1740 nM
- TGI [42]: 3.24 µM

SMILES: O=C(O)C1CC[N-]CC1.O=C(O)C1CC[N-]CC1.[Cl][Pt+2]([Cl])([Cl])[Cl]
- GI50 [3]: 34.2 µM

SMILES: OC(c1cc(-c2ccc(C(F)(F)F)cc2)nc(-c2ccc(C(F)(F)F)cc2)c1)C1CCCCN1 (stereo unspecified)
- GI50 [1]: 1820 nM
- TGI [1]: 3.28 µM
- GI50 [4]: 1560 nM
- TGI [4]: 3.3 µM
- GI50 [7]: 1470 nM
- TGI [7]: 3.2 µM
- GI50 [15]: 1720 nM
- TGI [15]: 3.28 µM
- GI50 [19]: 1780 nM
- TGI [19]: 3.25 µM
- GI50 [21]: 2050 nM
- TGI [21]: 3.88 µM
- GI50 [23]: 1750 nM
- TGI [23]: 3.33 µM
- GI50 [24]: 1620 nM
- TGI [24]: 3.09 µM
- GI50 [25]: 1660 nM
- TGI [25]: 3180 nM
- GI50 [27]: 1890 nM
- TGI [27]: 3.79 µM
- GI50 [43]: 1830 nM
- TGI [43]: 3.67 µM
- GI50 [44]: 1620 nM
- TGI [44]: 3.08 µM
- GI50 [29]: 1780 nM
- TGI [29]: 3.16 µM
- GI50 [45]: 893 nM
- TGI [45]: 2100 nM
- GI50 [46]: 1580 nM
- TGI [46]: 3.06 µM
- GI50 [33]: 1470 nM
- TGI [33]: 3100 nM
- GI50 [35]: 1710 nM
- TGI [35]: 3.32 µM
- GI50 [38]: 1560 nM
- TGI [38]: 2.96 µM
